Laboratory results published in patent publication US20220259164A1, “USE OF AMINOTHIOL COMPOUNDS AS CEREBRAL NERVE OR HEART PROTECTIVE AGENT” (SHANGHAI KECHOW PHARMA, INC., priority 2019, published 2022).
Where “and” joins values, the source holds several entries; their conditions need not be identical. Equal entries are not always repeated.

Columns and labels:
[1] = system: SD rat cerebral ischemia reperfusion injury model (MCAO); test: Neurobehavioral evaluation (5-point Longa/Bederson score) in rat ischemic stroke model (MCAO); assay type: in vivo; design: key to Neurological function score After modeling: Longa/Bederson 5-point scale (0-4); higher = more severe deficit; conditions: for Neurological function score After modeling: individual rats
Description: Healthy male SPF grade SD rats (body weight 250-300 g) were selected. […] (2) A midline neck incision was made to expose the right common carotid artery, internal carotid artery and external carotid artery. A 6-0 silk thread was used to ligate the distal end of the external carotid artery at 4 mm from the bifurcation of the common carotid artery, another 6-0 silk thread was inserted at the external carotid artery, and a slipknot was tied near the bifurcation of the common carotid artery. (3) An arterial clamp was used to clamp the common carotid artery. […] (4) The thread embolism was removed 90 min after ischemia, the proximal end of the external artery was ligated with a 6-0 silk thread, the neck wound was sutured with a 3-0 silk thread, the wound was disinfected with povidone iodine, the rats were placed on a heating pad, and after being awake, they were placed in a constant temperature rearing box for rearing. […] The experimental animals were scored for signs of neurological function deficit before and after modeling. The scoring standard was given by reference to the 5-point system of Longa and Bederson. The scoring was performed 24 h after the animals were awake from anesthesia. The higher the score, the more severe the behavioral disorder of the animals. 0 point: No nerve damage symptoms […] Inability to fully extend the contralateral front paw […] Turning in a circle to the opposite side […] Falling over to the opposite side 4 points: Inability to walk spontaneously, and loss of consciousness In a manner same as in Example 1, experimental animals were selected, except that the experiment was divided into seven groups (i.e., groups […], and G, among which groups C, D, and E were given different dosages of administration from Example 1, group F was given edaravone, and group G was given amifostine).

[2] = system: SD rat cerebral ischemia reperfusion injury model (MCAO); test: TTC staining and cerebral infarction area in rat ischemic stroke model (MCAO); assay type: in vivo; conditions: for Cerebral infarction area: individual rats
Experimental: Healthy male SPF grade SD rats (body weight 250-300 g) were selected. (1) The rats were anesthetized, the skin on the neck was prepared, and the body temperature was maintained at 37±0.5° C. (2) A midline neck incision was made to expose the right common carotid artery, internal carotid artery and external carotid artery. A 6-0 silk thread was used to ligate the distal end of the external carotid artery at 4 mm from the bifurcation of the common carotid artery, another 6-0 silk thread was inserted at the external carotid artery, and a slipknot was tied near the bifurcation of the common carotid artery. (3) An arterial clamp was used to clamp the common carotid artery. A small opening was cut on the external carotid artery at 3 mm from the bifurcation of the common carotid artery, and a 0.33 mm diameter nylon thread with a treated head end was inserted through the small opening, entered the internal carotid artery, and was inserted inward to the middle cerebral artery, wherein the insertion depth of the nylon thread was about 16±1 mm from the bifurcation of the common carotid artery. (4) The thread embolism was removed 90 min after ischemia, the proximal end of the external artery was ligated with a 6-0 silk thread, the neck wound was sutured with a 3-0 silk thread, the wound was disinfected with povidone iodine, the rats were placed on a heating pad, and after being awake, they were placed in a constant temperature rearing box for rearing. […] After the rats were anesthetized, the brain tissues were taken from the rats, placed in a refrigerator and frozen at -20° C. for 30 min. 1% TTC (W/V) was prepared with PBS and placed in a water bath at 37° C. until the TTC was dissolved, and the frozen brain tissue was sliced, placed in 10 ml of the TTC solution and incubated at 37° C. for 10 min. The brain slices were turned from time to time to make the tissue evenly stained. Normal brain tissue was bright red after staining, whereas the infarction region was pale white in color or light white in a black and white image. In addition, a software was used to measure and statistically analyze the infarction area. In a manner same as in Example 1, experimental animals were selected, except that the experiment was divided into seven groups (i.e., groups […], and G, among which groups C, D, and E were given different dosages of administration from Example 1, group F was given edaravone, and group G was given amifostine).

[3] = system: cisplatin-induced nephrotoxicity in SD rats; test: Cisplatin-induced nephrotoxicity in SD rats: blood creatinine and urea nitrogen; assay type: in vivo, rat; conditions: for Creatinine / Urea nitrogen: whole blood day 5, individual rats
Experimental: Healthy male SPF grade SD rats (body weight 250-300 g) were selected. Control group: PBS […] Cisplatin+compound B group: 5 mg/kg i.p.+compound B at 200 mg/kg i.p., with compound B being administered 30 min prior to cisplatin administration Cisplatin+amifostine group: 5 mg/kg i.p.+AMI at 200 mg/kg i.p., with AMI being administered 30 min prior to cisplatin administration Cisplatin+compound A group: 5 mg/kg i.p.+compound A at 800 mg/kg p.o., with compound A being administered 30 min prior to cisplatin administration (1) The SD rats used in the experiment were weighed, labeled, and evenly divided into 5 groups, with 3 SD rats in each group. (2) The compound B, compound A, and AMI groups were respectively administered at the planned concentrations. […] (3) The rats were weighed and recorded daily, and on day 5, blood was taken from the intraocular canthus of the SD rats and placed in an anticoagulant tube.

[4] = Body weight of cisplatin-induced SD rats; assay type: in vivo, rat
Experimental: Healthy male SPF grade SD rats (body weight 250-300 g) were selected. Cisplatin+compound B group: 5 mg/kg i.p.+compound B at 200 mg/kg i.p., with compound B being administered 30 min prior to cisplatin administration Cisplatin+amifostine group: 5 mg/kg i.p.+AMI at 200 mg/kg i.p., with AMI being administered 30 min prior to cisplatin administration Cisplatin+compound A group: 5 mg/kg i.p.+compound A at 800 mg/kg p.o., with compound A being administered 30 min prior to cisplatin administration (1) The SD rats used in the experiment were weighed, labeled, and evenly divided into 5 groups, with 3 SD rats in each group. (2) The compound B, compound A, and AMI groups were respectively administered at the planned concentrations. […] (3) The rats were weighed and recorded daily, and on day 5, blood was taken from the intraocular canthus of the SD rats and placed in an anticoagulant tube.

[5] = system: radiation intestinal injury in C57 male mice; test: Protective effect on radiation intestinal injury (HE staining of small intestine); assay type: in vivo; conditions: 517 mpk i.p. 30 min before 16 Gy abdominal irradiation; fifth day
Experimental: (§1) C57 male mice were randomly divided into 4 groups, namely a blank control group, an irradiation group, a compound B (TFA) irradiation group, and an AMI irradiation group, respectively. The mode of administration for each group was an intraperitoneal injection, 30 min before irradiation. The dosage of administration was 517 mpk, and the abdominal irradiation dose was 16 Gy. On the fifth day, the small intestine tissue was taken for HE staining.

[6] = system: radiation lung injury in C57 male mice; test: Protective effect on radiation lung injury (HE staining of lung); assay type: in vivo; conditions: 517 mpk i.p. 30 min before 17 Gy right lung irradiation; months 2, 4, 6
Experimental: as §1, with “the” for “the abdominal”, “dose to the right lung” for “dose”, “17” for “16”, “[…] Lung tissues were taken at months 2, 4, and 6 for HE staining” for “staining.”

[7] = system: rat myocardial infarction model (coronary ligation 30 min, reperfusion); test: Myocardial infarction model: myocardial infarction range (TTC staining); assay type: in vivo; conditions: isosorbide mononitrate injection i.v. 1 mg/kg
Experimental: (§2) 1. The rats were grouped and administered according to the following methods (2) Compound B (i.v.) at 100 mg/kg (3) Compound A (i.v.) at 100 mg/kg (4) Compound A (oral) at 500 mg/kg (5) Isosorbide mononitrate injection (i.v.) at 1 mg/kg (equivalent to clinical equivalent dose). There were 10 rats in each group, and the rats were administered intravenously immediately after 30 min of ischemia and reperfusion, i.v. 10% 1 min+i.v. drip 90% 30 min. The administration volume was 2 ml/rat. Compound A (oral) at 500 mg/kg was administered intragastrically 2 h after reperfusion when the animal was awake, and the administration volume was 10 ml/kg. Note: Compounds A and B used in this example were in the form of hydrochloride salts thereof. Given intraperitoneal injection of 3% sodium pentobarbital at 60 mg/kg for general anesthesia, the rats were fixed on an operating table in the supine position. The surgical field of the anterolateral chest was depilated and routinely disinfected. The skin and muscular layer were cut open, purse-string suture was performed on the muscular layer, the chest was opened on the left at the fourth intercostal space, and the heart was pulled out with a ring-shaped retractor. At the position of the anterior descending coronary artery 3-4 mm below the left atrial appendage, a 6/0 damage-free silk thread was threaded, and a nylon thread with a diameter of 1.6 mm was juxtaposed and ligated together with the anterior descending coronary artery, while the other end was left outside the body for later use. The heart was placed back into the chest cavity, the air in the chest cavity was emptied, and the chest cavity was closed. 30 min after ligation, the nylon thread was carefully removed for reperfusion. Compared with the normal lead II electrocardiogram (ECG-II), ST segment elevation in ECG-II by 0.1 mV or more 30 min after coronary artery ligation was regarded as successful ischemia.

[8] = system: rat myocardial infarction model (coronary ligation 30 min, reperfusion); test: Myocardial infarction model: myocardial enzyme LDH in serum; assay type: in vivo; conditions: isosorbide mononitrate injection i.v. 1 mg/kg
Experimental: as §2, with “ischemia. […] Blood was collected from the rats through the abdominal aorta and centrifuged at 3000 rpm×10 min at 4° C., and the upper serum was taken to determine LDH by enzyme-linked immunosorbent assay.” for “ischemia.”

[9] = Example 2 group G: amifostine 100 mg/kg i.p. 5 min before reperfusion
[10] = amifostine 200 mg/kg i.p. 30 min prior to cisplatin 5 mg/kg i.p.
[11] = Example 2 group F: edaravone 3 mg/kg i.v. before reperfusion

NCCCNCCSP(=O)(O)O [amifostine, reference compound]
% Behavioral improvement [1, 9]: 29.32%
Neurological function score After modeling [1, 9]: 2 (2×) and 1 (2×) and 3 (2×)
% Improvement of cerebral infarction area [2, 9]: 23.24%
Cerebral infarction area [2, 9]: 58.88 mm^3 and 20.71 mm^3 and 0 mm^3 and 244.96 mm^3 and 204.11 mm^3 and 20.31 mm^3
Effect on cisplatin-induced increase of blood creatinine and urea nitrogen (in words) ([3]; 30 min prior to cisplatin 5 mg/kg i.p.: compound B 200 mg/kg i.p., compound A 800 mg/kg p.o., amifostine 200 mg/kg i.p., day 5): significantly reduce the increased blood creatinine and urea nitrogen levels
Creatinine [3, 10]: 19.8 µmol/L and 38.9 µmol/L and 21.9 µmol/L
Urea nitrogen [3, 10]: 5.51 mmol/L and 5.34 mmol/L and 5.49 mmol/L
Change in body weight of cisplatin-induced SD rats ([4]; 30 min prior to cisplatin 5 mg/kg i.p.: compound B 200 mg/kg i.p., compound A 800 mg/kg p.o., amifostine 200 mg/kg i.p., weighed daily): the degree of decrease was significantly better than that of the cisplatin group
Changes in the intestinal villi structure (HE staining) [5]: milder than that in the irradiation group
Inflammatory cell infiltration / radiation pneumonitis in lung (HE staining) [6]: could partially relieve the inflammatory cell infiltration and reduce the occurrence of radiation pneumonitis

O=[N+]([O-])O[C@@H]1CO[C@H]2[C@@H]1OC[C@@H]2O [Isosorbide mononitrate injection, Isosorbide mononitrate, reference compound]
Improvement rate (%) of myocardial infarction range ([7]; compared with model group): 25.5%
Infarction range (%) ([7]; x ± s, n = 10): 30.1 ± 6.7 %
Improvement rate (%) of LDH ([8]; compared with model group): 22.4%
LDH ([8]; serum, x ± s, n = 10): 1472.7 ± 454.5 U/L

[NH2][Pt]([NH2])([Cl])[Cl] [CDDP, cisplatin, reference compound]
Creatinine ([3]; cisplatin alone 5 mg/kg i.p.): 58.6 µmol/L and 54.1 µmol/L and 78 µmol/L
Urea nitrogen ([3]; cisplatin alone 5 mg/kg i.p.): 18.70 mmol/L and 7.81 mmol/L and 12.9 mmol/L
Change in body weight ([4]; cisplatin alone 5 mg/kg i.p.): the body weight dropped significantly

CC1=NN(c2ccccc2)C(=O)C1 [edaravone, reference compound]
% Behavioral improvement [1, 11]: 46.99%
Neurological function score After modeling [1, 11]: 1 (4×) and 2 and 3
% Improvement of cerebral infarction area [2, 11]: 58.85% and 58.95%
Cerebral infarction area [2, 11]: 0 mm^3 (2×) and 10.31 mm^3 and 45.35 mm^3 and 220.66 mm^3 and 17.11 mm^3
